Data reported in PubChem BioAssay AID1963978 (Molecular Pharmacology Branch, DTP, NCI, 2024).

System: 616215-338-R-J1-PDC spheroids with HUVEC/MSC, viability
Test: Anticancer human tumor 616215-338-R-J1-PDC patient-derived colon adenocarcinoma cell line growth inhibition [PI3K]
Details: for IC50: curve of first compound; for viability, T/C: stronger effect = lower value
Description: Combinatorial screen of targeted agents with the PI3K inhibitors inavolisib, alpelisib, duvelisib, and copanlisib in multi-cell type tumor spheroids
A high-throughput screen of multi-cell type tumor spheroids was designed to identify active combinations of targeted small molecules and PI3K pathway inhibitors. Complex spheroids include a stromal component modeled by human endothelial cells (HUVEC) and fibroblasts modeled by human mesenchymal stem cells (MSCs). The concentration ranges selected for each drug and investigational agent were based upon clinically achievable concentrations if the clinical Cmax of the agent was known.
Compounds. The drugs and investigational agents: inavolisib (NSC800729), alpelisib (NSC765974), duvelisib (NSC772469), copanlisib (NSC816437), ipatasertib (NSC767898), afuresertib (NSC778305), talazoparib (NSC767125), sapanisertib (NSC764658), selumetinib (NSC741078), tovorafenib (DAY101, NSC766906), vemurafenib (NSC761431), ravoxertinib (NSC781343), sotorasib (NSC818433), MRTX1133 (NSC 836407), abemaciclib (NSC 768073), palbociclib (NSC758247), venetoclax (NSC 766270), SY5609 (NSC837396), enzalutamide (NSC755605), and darolutamide (NSC825331), were obtained from the National Cancer Institute (NCI) Developmental Therapeutics Program Chemical Repository. The FDA-approved anticancer drug set is available from the NCI Developmental Therapeutics Program. […] The stock solutions were prepared in dimethyl sulfoxide (DMSO, Sigma-Aldrich, St. Louis, MO, cat. D2650) at 800-fold the tested concentration and stored at -70 degrees C prior to their use. All drugs and investigational agents were tested over a range starting from a high concentration at or near the clinical Cmax and decreasing in half-log increments. If the clinical Cmax for an agent had not been determined, the highest concentration tested was 10 microM.
Cell Culture. All cells were maintained in an incubator at 37 degrees C and 5% CO2 with 95% humidity. The PDC lines were cultured according to standard operating procedures established by the NCI PDMR (https://pdmr.cancer.gov/sops/default.htm). All PDCs were thawed and cultured in Matrigel-coated flasks prepared with a working solution of 1X Ham's F-12 nutrient mix, without supplementation (Invitrogen, Waltham, MA, cat. 11765054), 100 U/mL penicillin-streptomycin (Invitrogen, cat. 15140122), and 2.5% Matrigel (Corning Inc., Corning, NY, cat. 354248) for the first three passages. The 354836-022-R-J1-PDC, 475296-252-R-J1-PDC, and 997726-040-R-J2-PDC lines were cultured in 6A media, which includes advanced DMEM/F-12 (Thermo Fisher Scientific, cat. 12634028), 10 mM HEPES (Thermo Fisher Scientific, cat. 15630080), 1X GlutaMAX supplement (Thermo Fisher Scientific, cat. 35050061), 0.1 mg/mL primocin (InvivoGen, San Diego, CA, cat. ant-pm-2), 10% defined fetal bovine serum, heat inactivated (HyClone Laboratories Inc., Logan, UT, cat. SH30070.03HI), 50% L-WRN conditioned media (ATCC, cat. CRL-3276), 1.25 mM N-Acetyl-L-cysteine (Sigma-Aldrich, cat. A9165), 10 mM nicotinamide (Sigma-Aldrich, cat. N0636), 1X B-27 supplement (Thermo Fisher Scientific, cat. 17504044), 1X N-2 supplement (Thermo Fisher Scientific, cat. 17502048), and 10 microM Y-27632 dihydrochloride (Tocris Bioscience, Bristol, United Kingdom, cat. 1254). The 624824-186-R-J2-PDC line was cultured in 6C/Colon 1B media, which includes all 6A media components plus 50 ng/mL human EGF recombinant protein (Thermo Fisher Scientific, cat. PHG0311). […]

[1] = second compound 0.00316 µM, first compound 0.0316 µM
[2] = second compound 0.00316 µM, first compound 0.1 µM
[3] = second compound 0.01 µM, first compound 0.0316 µM
[4] = second compound 0.01 µM, first compound 0.1 µM
[5] = second compound 0.0316 µM, first compound 0.0316 µM
[6] = second compound 0.0316 µM, first compound 0.1 µM
[7] = second compound 0.1 µM, first compound 0.0316 µM
[8] = second compound 0.1 µM, first compound 0.1 µM
[9] = second compound 0.316 µM, first compound 0.0316 µM
[10] = second compound 0.316 µM, first compound 0.1 µM
[11] = second compound 1 µM, first compound 0.0316 µM
[12] = second compound 1 µM, first compound 0.1 µM
[13] = second compound 0.00316 µM, first compound 0.316 µM
[14] = second compound 0.00316 µM, first compound 1 µM
[15] = second compound 0.00316 µM, first compound 3.16 µM
[16] = second compound 0.00316 µM, first compound 10 µM
[17] = second compound 0.01 µM, first compound 0.316 µM
[18] = second compound 0.01 µM, first compound 1 µM
[19] = second compound 0.01 µM, first compound 3.16 µM
[20] = second compound 0.01 µM, first compound 10 µM
[21] = second compound 0.0316 µM, first compound 0.316 µM
[22] = second compound 0.0316 µM, first compound 1 µM
[23] = second compound 0.0316 µM, first compound 3.16 µM
[24] = second compound 0.0316 µM, first compound 10 µM
[25] = second compound 0.1 µM, first compound 0.316 µM
[26] = second compound 0.1 µM, first compound 1 µM
[27] = second compound 0.1 µM, first compound 3.16 µM
[28] = second compound 0.1 µM, first compound 10 µM
[29] = second compound 0.316 µM, first compound 0.316 µM
[30] = second compound 0.316 µM, first compound 1 µM
[31] = second compound 0.316 µM, first compound 3.16 µM
[32] = second compound 0.316 µM, first compound 10 µM
[33] = second compound 1 µM, first compound 0.316 µM
[34] = second compound 1 µM, first compound 1 µM
[35] = second compound 1 µM, first compound 3.16 µM
[36] = second compound 1 µM, first compound 10 µM
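Further: spheroids exposed to agents for seven days before the viability read.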

`CC(=O)c1c(C)c2cnc(Nc3ccc(N4CCNCC4)cn3)nc2n(C2CCCC2)c1=O` + CC(Nc1ccc2c(c1)OCCn1cc(N3C(=O)OCC3C(F)F)nc1-2)C(N)=O showed an IC50 (second compound 0.00316 µM) greater than 0.1 µM, an IC50 (second compound 0.01 µM) greater than 0.1 µM and an IC50 (second compound 0.0316 µM) greater than 0.1 µM. It also gave an IC50 (second compound 0.1 µM) greater than 0.1 µM, an IC50 (second compound 0.316 µM) greater than 0.1 µM and an IC50 (second compound 1 µM) greater than 0.1 µM. For the same compound, the viability, T/C (second compound 0.00316 µM, first compound 0.000316 µM) was 87.7%, the viability, T/C (second compound 0.00316 µM, first compound 0.001 µM) was 104% and the viability, T/C (second compound 0.00316 µM, first compound 0.00316 µM) was 93%. It also gave a viability, T/C (second compound 0.00316 µM, first compound 0.01 µM) of 99.4%, a viability, T/C [1] of 94.6% and a viability, T/C [2] of 95.9%. For the same compound, the viability, T/C (second compound 0.01 µM, first compound 0.000316 µM) was 99.6%, the viability, T/C (second compound 0.01 µM, first compound 0.001 µM) was 100% and the viability, T/C (second compound 0.01 µM, first compound 0.00316 µM) was 107%. For the same compound, the viability, T/C (second compound 0.01 µM, first compound 0.01 µM) was 90.2%, the viability, T/C [3] was 99.5% and the viability, T/C [4] was 96.5%. It also gave a viability, T/C (second compound 0.0316 µM, first compound 0.000316 µM) of 93.2%, a viability, T/C (second compound 0.0316 µM, first compound 0.001 µM) of 102% and a viability, T/C (second compound 0.0316 µM, first compound 0.00316 µM) of 98.2%. For the same compound, the viability, T/C (second compound 0.0316 µM, first compound 0.01 µM) was 101%, the viability, T/C [5] was 91.5% and the viability, T/C [6] was 107%. It also gave a viability, T/C (second compound 0.1 µM, first compound 0.000316 µM) of 102%, a viability, T/C (second compound 0.1 µM, first compound 0.001 µM) of 99% and a viability, T/C (second compound 0.1 µM, first compound 0.00316 µM) of 92.6%. It also gave a viability, T/C (second compound 0.1 µM, first compound 0.01 µM) of 112%, a viability, T/C [7] of 93.8% and a viability, T/C [8] of 101%. The viability, T/C (second compound 0.316 µM, first compound 0.000316 µM) was 106%, the viability, T/C (second compound 0.316 µM, first compound 0.001 µM) was 112% and the viability, T/C (second compound 0.316 µM, first compound 0.00316 µM) was 100%. It also gave a viability, T/C (second compound 0.316 µM, first compound 0.01 µM) of 106%, a viability, T/C [9] of 98% and a viability, T/C [10] of 90.2%. It also gave a viability, T/C (second compound 1 µM, first compound 0.000316 µM) of 105%, a viability, T/C (second compound 1 µM, first compound 0.001 µM) of 94.7% and a viability, T/C (second compound 1 µM, first compound 0.00316 µM) of 102%. It also gave a viability, T/C (second compound 1 µM, first compound 0.01 µM) of 105%, a viability, T/C [11] of 95.1% and a viability, T/C [12] of 81.7%.
For `CCCS(=O)(=O)Nc1ccc(F)c(C(=O)c2c[nH]c3ncc(-c4ccc(Cl)cc4)cc23)c1F` + CC(Nc1ccc2c(c1)OCCn1cc(N3C(=O)OCC3C(F)F)nc1-2)C(N)=O, the IC50 (second compound 0.00316 µM) was 4.92 µM, the IC50 (second compound 0.01 µM) was 4.9 µM and the IC50 (second compound 0.0316 µM) was 4.61 µM. For the same compound, the IC50 (second compound 0.1 µM) was 4.47 µM, the IC50 (second compound 0.316 µM) was 4.68 µM and the IC50 (second compound 1 µM) was 3.81 µM. For the same compound, the viability, T/C [1] was 91.3%, the viability, T/C [2] was 92.7% and the viability, T/C [13] was 90.8%. It also gave a viability, T/C [14] of 88.8%, a viability, T/C [15] of 79.9% and a viability, T/C [16] of 2.03%. It also gave a viability, T/C [3] of 97.9%, a viability, T/C [4] of 93.1% and a viability, T/C [17] of 92.2%. The viability, T/C [18] was 92.9%, the viability, T/C [19] was 79% and the viability, T/C [20] was 2.65%. For the same compound, the viability, T/C [5] was 94.6%, the viability, T/C [6] was 103% and the viability, T/C [21] was 91.3%. For the same compound, the viability, T/C [22] was 95.4%, the viability, T/C [23] was 72.9% and the viability, T/C [24] was 3.28%. It also gave a viability, T/C [7] of 107%, a viability, T/C [8] of 98% and a viability, T/C [25] of 92.7%. For the same compound, the viability, T/C [26] was 103%, the viability, T/C [27] was 69.9% and the viability, T/C [28] was 3.51%. It also gave a viability, T/C [9] of 103%, a viability, T/C [10] of 103% and a viability, T/C [29] of 109%. It also gave a viability, T/C [30] of 102%, a viability, T/C [31] of 73.3% and a viability, T/C [32] of 4.84%. It also gave a viability, T/C [11] of 108%, a viability, T/C [12] of 98.1% and a viability, T/C [33] of 106%. For the same compound, the viability, T/C [34] was 102%, the viability, T/C [35] was 58.8% and the viability, T/C [36] was 4.52%.
In the case of `CNC(=O)c1ccc(N2C(=S)N(c3ccc(C#N)c(C(F)(F)F)c3)C(=O)C2(C)C)cc1F` + CC(Nc1ccc2c(c1)OCCn1cc(N3C(=O)OCC3C(F)F)nc1-2)C(N)=O, the IC50 (second compound 0.00316 µM) is reported as greater than 10 µM, the IC50 (second compound 0.01 µM) is reported as greater than 10 µM and the IC50 (second compound 0.0316 µM) is reported as greater than 10 µM. For the same compound, the IC50 (second compound 0.1 µM) was greater than 10 µM, the IC50 (second compound 0.316 µM) was greater than 10 µM and the IC50 (second compound 1 µM) was greater than 10 µM. For the same compound, the viability, T/C [1] was 102%, the viability, T/C [2] was 89.1% and the viability, T/C [13] was 101%. The viability, T/C [14] was 94.5%, the viability, T/C [15] was 112% and the viability, T/C [16] was 100%. For the same compound, the viability, T/C [3] was 94.7%, the viability, T/C [4] was 101% and the viability, T/C [17] was 98.3%. For the same compound, the viability, T/C [18] was 105%, the viability, T/C [19] was 99.7% and the viability, T/C [20] was 95%. It also gave a viability, T/C [5] of 105%, a viability, T/C [6] of 94% and a viability, T/C [21] of 102%. It also gave a viability, T/C [22] of 97.9%, a viability, T/C [23] of 99.8% and a viability, T/C [24] of 102%. For the same compound, the viability, T/C [7] was 102%, the viability, T/C [8] was 87.2% and the viability, T/C [25] was 110%. For the same compound, the viability, T/C [26] was 97.7%, the viability, T/C [27] was 96.2% and the viability, T/C [28] was 108%. The viability, T/C [9] was 95%, the viability, T/C [10] was 113% and the viability, T/C [29] was 107%. The viability, T/C [30] was 102%, the viability, T/C [31] was 102% and the viability, T/C [32] was 94.5%. The viability, T/C [11] was 104%, the viability, T/C [12] was 94.2% and the viability, T/C [33] was 102%. It also gave a viability, T/C [34] of 104%, a viability, T/C [35] of 104% and a viability, T/C [36] of 86.7%.
